Measured values: patent US9133204B2, “5-membered heterocyclic amides and related compounds” (H. Lundbeck A/S, priority 2007, dated 2015)

Each compound was assayed against T1, P2X7 receptor (Homo sapiens, UniProt Q99572) (assay: High throughput P2X7 calcium mobilization assay (Example 4A)). Conditions: SH-SY5Y cells; 50% decrease in fluorescence response of cells exposed to 80 μM BzATP; Table I.
T1 construct: host or cells: SH-SY5Y
T1 sequence (Q99572 1-595): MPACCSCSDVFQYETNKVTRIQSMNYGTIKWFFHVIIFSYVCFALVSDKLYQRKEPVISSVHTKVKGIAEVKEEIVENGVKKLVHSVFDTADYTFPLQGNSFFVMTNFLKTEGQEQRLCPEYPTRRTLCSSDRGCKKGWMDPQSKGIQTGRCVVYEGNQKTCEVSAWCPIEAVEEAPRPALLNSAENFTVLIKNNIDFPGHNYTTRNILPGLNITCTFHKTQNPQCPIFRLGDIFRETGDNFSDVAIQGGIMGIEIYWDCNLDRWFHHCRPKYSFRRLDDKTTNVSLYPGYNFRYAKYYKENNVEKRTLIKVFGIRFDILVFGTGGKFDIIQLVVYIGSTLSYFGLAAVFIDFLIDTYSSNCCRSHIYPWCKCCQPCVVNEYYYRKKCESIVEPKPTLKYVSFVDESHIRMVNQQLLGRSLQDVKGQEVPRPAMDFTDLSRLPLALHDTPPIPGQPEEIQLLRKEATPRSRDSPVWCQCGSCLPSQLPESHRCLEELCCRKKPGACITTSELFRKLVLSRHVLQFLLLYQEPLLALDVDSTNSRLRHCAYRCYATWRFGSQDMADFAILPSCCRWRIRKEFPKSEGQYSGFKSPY
Assay type: cell-based
How it was run: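 Calcium mobilization read by FLIPR as peak fluorescence over 2 min after adding BzATP to a final 80 μM (about EC50). Beforehand, Fluo-4 AM-loaded SH-SY5Y cells sat 1 h at room temperature with compound at 1–2500 nM in pH 7.4 sucrose/HEPES buffer; signal minus no-agonist wells.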

IC50, ≤ 2000 nM:
Cc1cnc(-n2cc(C(=O)NCC3(c4ccc(C(F)(F)F)cc4)CCCCC3)c(C(C)(C)C)n2)nc1N [Compound 177, 1-(4-amino-5-methylpyrimidin-2-yl)-3-tert-butyl-N-({1-[4-(trifluoromethyl)phenyl]cyclohexyl]methyl)-1H-pyrazole-4-carboxamide]
Cc1nn(-c2ncccn2)cc1C(=O)NCC(CC(C)C)c1ccc(C(F)(F)F)cc1 (stereo not shown) [Compound 178, 3-methyl-N-{4-methyl-2-[4-(trifluoromethyl)phenyl]pentyl}-1-pyrimidin-2-yl-1H-pyrazole-4-carboxamide]
Cc1nn(-c2nccnc2N)cc1C(=O)NCC(CC(C)C)c1ccc(C(F)(F)F)cc1 (stereo not shown) [Compound 179, 1-(3-aminopyrazin-2-yl)-3-methyl-N-{4-methyl-2-[4-(trifluoromethyl)phenyl]pentyl}-1H-pyrazole-4-carboxamide]
Cc1nn(-c2cncc(N)n2)cc1C(=O)NCC(CC(C)C)c1ccc(C(F)(F)F)cc1 (stereo not shown) [Compound 180, 1-(6-aminopyrazin-2-yl)-3-methyl-N-{4-methyl-2-[4-(trifluoromethyl)phenyl]pentyl}-1H-pyrazole-4-carboxamide]
Cc1nn(-c2ncccn2)cc1C(=O)NCC1(c2ccc(C(F)(F)F)cc2)CCCCC1 [Compound 181, 3-methyl-1-pyrimidin-2-yl-N-({1-[4-(trifluoromethyl)phenyl]cyclohexyl]methyl)-1H-pyrazole-4-carboxamide]
Cc1nn(-c2nccnc2N)cc1C(=O)NCC1(c2ccc(C(F)(F)F)cc2)CCCCC1 [Compound 182, 1-(3-aminopyrazin-2-yl)-3-methyl-N-({1-[4-(trifluoromethyl)phenyl]cyclohexyl}methyl)-1H-pyrazole-4-carboxamide]
Cc1nn(-c2cncc(N)n2)cc1C(=O)NCC1(c2ccc(C(F)(F)F)cc2)CCCCC1 [Compound 183, 1-(6-aminopyrazin-2-yl)-3-methyl-N-({1-[4-(trifluoromethyl)phenyl]cyclohexyl}methyl)-1H-pyrazole-4-carboxamide]
Cc1nn(-c2cnccn2)cc1C(=O)NCC1(c2ccc(C(F)(F)F)cc2)CCCCC1 [Compound 184, 3-methyl-1-pyrazin-2-yl-N-({1-[4-(trifluoromethyl)phenyl]cyclohexyl}methyl)-1H-pyrazole-4-carboxamide]
COc1ccnc(-n2cc(C(=O)NCC3(c4cccnc4)CCCCC3)c(C(F)(F)F)n2)n1 [Compound 185, 1-(4-methoxypyrimidin-2-yl)-N-[(1-pyridin-3-ylcyclohexyl)methyl]-3-(trifluoromethyl)-1H-pyrazole-4-carboxamide]
Cc1nccnc1-n1cc(C(=O)NCC2(c3cccnc3)CCCCC2)c(C(F)(F)F)n1 [Compound 186, 1-(3-methylpyrazin-2-yl)-N-[(1-pyridin-3-ylcyclohexyl)methyl]-3-(trifluoromethyl)-1H-pyrazole-4-carboxamide]
Cc1cncc(-n2cc(C(=O)NCC3(c4cccnc4)CCCCC3)c(C(F)(F)F)n2)n1 [Compound 187, 1-(6-methylpyrazin-2-yl)-N-[(1-pyridin-3-ylcyclohexyl)methyl]-3-(trifluoromethyl)-1H-pyrazole-4-carboxamide]
CCc1nccnc1-n1cc(C(=O)NCC2(c3cccnc3)CCCCC2)c(C(F)(F)F)n1 [Compound 188, 1-(3-ethylpyrazin-2-yl)-N-[(1-pyridin-3-ylcyclohexyl)methyl]-3-(trifluoromethyl)-1H-pyrazole-4-carboxamide]
Cc1cnc(-n2cc(C(=O)NCC3(c4ccc(F)cc4)CCCCC3)c(C(F)(F)F)n2)nc1N [Compound 190, 1-(4-amino-5-methylpyrimidin-2-yl)-N-{[1-(4-fluorophenyl)cyclohexyl]methyl}-3-(trifluoromethyl)-1H-pyrazole-4-carboxamide]
COc1cnc(-n2cc(C(=O)NCC3(c4cccnc4)CCCCC3)c(C(F)(F)F)n2)nc1 [Compound 191, 1-(5-methoxypyrimidin-2-yl)-N-[(1-pyridin-3-ylcyclohexyl)methyl]-3-(trifluoromethyl)-1H-pyrazole-4-carboxamide]
O=C(NCC1(c2cccnc2)CCCCC1)c1cn(-c2ncc(Cl)cn2)nc1C(F)(F)F [Compound 192, 1-(5-chloropyrimidin-2-yl)-N-[(1-pyridin-3-ylcyclohexyl)methyl]-3-(trifluoromethyl)-1H-pyrazole-4-carboxamide]
O=C(NCCC12CC3CC(CC(C3)C1)C2)c1cn(-c2ncccn2)nc1C(F)(F)F [Compound 193, N-(2-adamantan-1-ylethyl)-1-pyrimidin-2-yl-3-(trifluoromethyl)-1H-pyrazole-4-carboxamide]
CC1(C)C2CC[C@@H](CNC(=O)c3cn(-c4ncccn4)nc3C(F)(F)F)C1C2 (stereo partly drawn) [Compound 194, N-{[(2R)-6,6-dimethylbicyclo[3.1.1]hept-2-yl]methyl}-1-pyrimidin-2-yl-3-(trifluoromethyl)-1H-pyrazole-4-carboxamide]
O=C(NCC1(c2ccc(Cl)cc2)CCCCC1)c1cn(-c2ncccn2)nc1C(F)(F)F [Compound 195, N-{[1-(4-chlorophenyl)cyclohexyl]methyl}-1-pyrimidin-2-yl-3-(trifluoromethyl)-1H-pyrazole-4-carboxamide]
O=C(NCC1(c2ccc(C(F)(F)F)cc2)CCCCC1)c1cn(-c2ncccn2)nc1C(F)(F)F [Compound 196, 1-pyrimidin-2-yl-3-(trifluoromethyl)-N-({1-[4-(trifluoromethyl)phenyl]cyclohexyl]methyl)-1H-pyrazole-4-carboxamide]
O=C(NCC1(c2ccc(Cl)cc2)CCOCC1)c1cn(-c2ncccn2)nc1C(F)(F)F [Compound 197, N-{[4-(4-chlorophenyl)tetrahydro-2H-pyran-4-yl]methyl}-1-pyrimidin-2-yl-3-(trifluoromethyl)-1H-pyrazole-4-carboxamide]
O=C(NCC1(N2CCOCC2)CCCCC1)c1cn(-c2ncccn2)nc1C(F)(F)F [Compound 198, N-[(1-morpholin-4-ylcyclohexyl)methyl]-1-pyrimidin-2-yl-3-(trifluoromethyl)-1H-pyrazole-4-carboxamide]
COc1ccc(C2(CNC(=O)c3cn(-c4ncccn4)nc3C(F)(F)F)CCCCC2)cc1 [Compound 199, N-{[1-(4-methoxyphenyl)cyclohexyl]methyl}-1-pyrimidin-2-yl-3-(trifluoromethyl)-1H-pyrazole-4-carboxamide]
CC(C)CC(CNC(=O)c1cn(-c2ncccn2)nc1C(F)(F)F)c1ccc(C(F)(F)F)cc1 (stereo not shown) [Compound 200, N-{4-methyl-2-[4-(trifluoromethyl)phenyl]pentyl}-1-pyrimidin-2-yl-3-(trifluoromethyl)-1H-pyrazole-4-carboxamide]
CCCC(CNC(=O)c1cn(-c2ncccn2)nc1C(F)(F)F)c1ccc(Cl)cc1 (stereo not shown) [Compound 201, N-[2-(4-chlorophenyl)pentyl]-1-pyrimidin-2-yl-3-(trifluoromethyl)-1H-pyrazole-4-carboxamide]
CC(CNC(=O)c1cn(-c2ncccn2)nc1C(F)(F)F)c1ccc(Cl)cc1 (stereo not shown) [Compound 202, N-[2-(4-chlorophenyl)propyl]-1-pyrimidin-2-yl-3-(trifluoromethyl)-1H-pyrazole-4-carboxamide]
CC(C)CC(CNC(=O)c1cn(-c2ncccn2)nc1C(F)(F)F)c1cccnc1 (stereo not shown) [Compound 203, N-(4-methyl-2-pyridin-3-ylpentyl)-1-pyrimidin-2-yl-3-(trifluoromethyl)-1H-pyrazole-4-carboxamide]
O=C(NCC1(c2ccc(Cl)cc2)CCC1)c1cn(-c2ncccn2)nc1C(F)(F)F [Compound 204, N-{[1-(4-chlorophenyl)cyclobutyl]methyl}-1-pyrimidin-2-yl-3-(trifluoromethyl)-1H-pyrazole-4-carboxamide]
O=C(NCC(O)C12CC3CC(CC(C3)C1)C2)c1cn(-c2ncccn2)nc1C(F)(F)F (stereo not shown) [Compound 205, N-(2-adamantan-1-yl-2-hydroxyethyl)-1-pyrimidin-2-yl-3-(trifluoromethyl)-1H-pyrazole-4-carboxamide]
CC(C)CCNC(=O)c1cn(-c2ncccn2)nc1C(F)(F)F [Compound 206, N-(3-methylbutyl)-1-pyrimidin-2-yl-3-(trifluoromethyl)-1H-pyrazole-4-carboxamide]
CCC(CNC(=O)c1cn(-c2ncccn2)nc1C(F)(F)F)c1ccccc1 (stereo not shown) [Compound 207, N-(2-phenylbutyl)-1-pyrimidin-2-yl-3-(trifluoromethyl)-1H-pyrazole-4-carboxamide]
CCCCCCCC(CNC(=O)c1cn(-c2ncccn2)nc1C(F)(F)F)c1ccccc1 (stereo not shown) [Compound 208, N-(2-phenylnonyl)-1-pyrimidin-2-yl-3-(trifluoromethyl)-1H-pyrazole-4-carboxamide]
